This experiment concerns C57BL/6 mice, diffuse TBI. The experiment is described as follows: Flow cytometry analysis of blood after TBI. It counts as in vivo, mouse. Conditions: 10 mg/kg i.p. 30 min prior to TBI. The method, then: 30 min prior to TBI or sham injury, mice were randomly assigned to a therapeutic group and received an intraperitoneal injection of 2LS80Mel (10 mg/kg) or sterile saline (0.25 ml). Groups were as follows: TBI-2LS80Mel n = 17; TBI-vehicle n = 17; sham n = 22 (vehicle n = 11, 2LS80Mel n = 11).
For injury induction 24 h post-surgery, mice were re-anesthetized with 5% isoflurane delivered for 3 min. The cap was removed from the injury-hub assembly and the dura was visually inspected through the hub to ensure it was intact with no debris. The hub was then filled with normal saline and attached to an extension tube connected to the male end of the fluid percussion device (Custom Design and Fabrication, Virginia Commonwealth University, Richmond, VA). An injury of moderate severity for our injury model (1.4 atm) was administered by releasing the pendulum onto the fluid-filled cylinder following the return of a toe-pinch response. Sham mice underwent the same procedure except the pendulum was not released. Injured mice were monitored for presence of a forearm fencing response and righting reflex times were recorded as indicators of injury severity ([Hosseini and Lifshitz, 2009]). The righting reflex time is the total time from the initial impact until the mouse spontaneously rights itself from a supine position. The fencing response is a tonic posturing characterized by extension and flexion of opposite arms that has been validated as an overt indicator of injury severity ([Hosseini and Lifshitz, 2009]). The injury hub was removed, and the brain was inspected for uniform herniation and integrity of the dura. The incision was cleaned with saline and closed using sutures. Moderately brain-injured mice had righting reflex recovery times greater than 4 min and a positive fencing response. […] After spontaneously righting, mice were placed in a heated recovery cage and monitored until they were ambulatory (approximately 5–15 min) before being returned to their piezoelectric sleep cage (see below). […]

The structures appear in SMILES notation.

As for `CC[C@H](C)[C@H](NC(=O)CNC(=O)[C@H](CC(=O)O)NC(=O)[C@H](CO)NC(=O)[C@@H](N)Cc1c[nH]cn1)C(=O)N[C@@H](Cc1ccccc1)C(=O)N[C@H](C(=O)N[C@@H](CC(=O)O)C(=O)N[C@@H](CO)C(=O)N[C@@H](Cc1ccc(O)cc1)C(=O)N[C@@H](CO)C(=O)N[C@@H](CCCNC(=N)N)C(=O)N[C@@H](Cc1ccc(O)cc1)C(=O)N[C@@H](CCCNC(=N)N)C(=O)N[C@@H](CCCCN)C(=O)N[C@@H](CCC(N)=O)C(=O)N[C@@H](CC(C)C)C(=O)N[C@@H](C)C(=O)N[C@H](C(=O)N[C@@H](CCCCN)C(=O)N[C@@H](CCCCN)C(=O)N[C@@H](Cc1ccc(O)cc1)C(=O)N[C@@H](CC(C)C)C(=O)N[C@@H](C)C(=O)N[C@@H](C)C(=O)N[C@H](C(=O)N[C@@H](CC(C)C)C(=O)N[C@@H](CO[C@@H]1O[C@H](CO[C@H]2O[C@H](CO)[C@H](O)[C@H](O)[C@H]2O)[C@@H](O)[C@H](O)[C@H]1O)C(N)=O)C(C)C)C(C)C)[C@@H](C)O` [Compound 2LS80Mel], the “CD11b+CD115+Ly6Chigh monocyte population in blood” value is listed as “increase was not seen”, the “CD11b+Ly6Chigh monocyte population in blood” value is given as “increase was not seen” and the “Neutrophil populations in blood” value is recorded as “no differences”.
